Assay results from US12133842B2, “Stable preservative-free mydriatic and anti-inflammatory solutions for injection” (RAYNE INTRAOCULAR LENSES LIMITED, priority 2012, dated 2024).
Entries after “also recorded” stand apart in the source; their conditions may differ. Counter-ions that a name gives are not always drawn.

How the values were obtained:
[1] = test system: African green monkey model of human phacoemulsification surgery; assay: Concentration-ranging study of phenylephrine and ketorolac, intraoperative irrigation, phacoemulsification surgical model, Example 6; type: in vivo
Experimental: (§1) In each case an aliquot of the formulation was injected into a balanced salt solution (BSS, Baxter Healthcare, produce code 1A7233) as the irrigation vehicle carrier to a particular final dosing concentration as described below. The studies also utilized Proparacaine HCl (0.5%, Bausch & Lomb), Tropicamide (1.0%, Bausch & Lomb) and Ciprofloxacin HCl (3%, Alcon) to the extent described below.
(§2) The mydriatic and anti-inflammatory properties of the test agents were evaluated in an African green monkey model of human phacoemulsification surgery. Prior to surgery, baseline measures and assessments were performed on both eyes in each monkey to determine pupil diameter, lens and iris integrity, corneal thickness, and anterior chamber flare and cell count by qualitative scoring under biomicroscopy and quantitative flare photometry using a Kowa FM-500 instrument. A phacoemulsification surgery with lens replacement with a polymethyl methacrylate (PMMA) artificial lens was performed using a Storz Premier anterior phacoemulsification machine. The procedure was only performed on the right eye to minimize surgery position variability, allow the left to serve as control, and to minimize the consequence of any possible vision loss induced.
Test animals were placed in a prone position under ketamine/xylazine anesthesia augmented with one drop of topical proparacaine. A small incision was made in the cornea of the right eye with a MVR 20 G lance blade, through which 0.4-0.6 mL of viscoelastic (2% hydroxypropyl methylcellulose, EyeCoat, Eyekon Medical) was introduced into the anterior chamber via a viscoelastic injector. A corneal incision was made 1.0 mm anterior to the limbus using a 2.65 mm straight clear cornea bi-beveled blade. Irrigation was applied with the phacoemulsification hand piece to remove viscoelastic and introduce the test perfusate. After irrigation for a total of four minutes, irrigation was stopped and the anterior chamber refilled with viscoelastic. A capsulorhexis was performed and the phacoemulsification tip reintroduced into the anterior chamber with the application of phacoemulsification energy to disrupt the lens and allow aspiration and lens fragment removal. Irrigation was extended for a period after lens removal to standardize intraocular perfusate delivery across all treatment groups (a total of 14 minutes during this phacoemulsification segment of the irrigation). Following the phacoemulsification and irrigation procedure, a PMMA intraocular lens (IOL) was inserted and an additional two minutes of irrigation perfumed, after which the corneal incision was closed with two 12.0 nylon sutures. Irrigation with a test fluid or vehicle control, as described below, was performed for a total of 20 minutes at a flow rate of 20 mL/min, prior to, during and after phacoemulsification and lens replacement.
(§3) In these studies, laser flare photometry was performed at baseline, 4.5, 24, 48 hours and 1 week after the initiation of the surgical procedure using a Kowa FM-500 (Kowa Company, Tokyo Japan). The Kowa FM-500 measures laser light scattering to quantify anterior chamber flare. A laser is directed into the anterior chamber and protein molecules, released into the anterior chamber during an inflammatory response, pass through the focal point scattering laser light. This light scattering is quantified by a photomultiplier tube as photon counts per millisecond. At each observation point, measurements were collected until seven acceptable readings (difference between two background measurements <15%) were obtained and the lowest and highest readings were deleted and the mean value+/−the standard deviation calculated, as specified by the manufacturer.
The time course of the mydriatic effect was documented through video recording of the pupil during the perfusion procedure. Pupil diameter and the fixed width of the lid speculum (11 mm) were measured from the screen image to allow calculation of the pupil diameter in millimeters.

[2] = test system: subjects undergoing unilateral cataract extraction with lens replacement (CELR); assay: Phase 2b human clinical study, irrigation during cataract extraction with lens replacement (CELR), Example 10; type: in vivo; conditions: for Subjects Having Pupil Diameter <6 mm during CELR (number of subjects) / Subjects Having Pupil Diameter <6 mm during CELR (percent): intent-to-treat, n = 49 combination, 52 KE, 49 PE
Experimental: A Phase 2b human clinical study evaluated a ketorolac and phenylephrine combination drug composition, formulated in accordance with Formula 1 of the present invention-, for its effect on the maintenance of intra-operative mydriasis (pupil dilation) and reduction of postoperative pain and irritation resulting from cataract and other lens replacement surgery. The combination drug composition was diluted into a balanced salt solution irrigation carrier prior to intraocular administration during intraocular surgical procedures.
The subject Phase 2b study was a randomized, parallel group, vehicle-controlled, factorial design study, and was run to compare phenylephrine (PE), ketorolac (KE) and the combination drug composition containing both PE and KE in subjects undergoing unilateral cataract extraction with lens replacement (CELR) using a coaxial phacoemulsification process with insertion of an acrylic lens. Administration of test irrigation solutions occurred in a double-masked fashion. The study evaluated, in a four-arm full-factorial design, the contribution of the two active pharmaceutical ingredients (PE and KE, alone and in combination) to the maintenance of mydriasis and post-operative reduction in pain when administered diluted in balanced salt solution (BSS). The study also explored the effect of the combination drug composition, PE, and KE on postoperative inflammation. Subjects were randomized to one of the following four treatment arms in a 1:1:1:1 fashion: • a. BSS vehicle • b. 483 μM PE in BSS • c. 89 μM KE in BSS • d. the combination drug composition containing 483 μM PE and 89 μM KE in BSS.
All subjects in this study received preoperative mydriatics and anesthetics. In each of the four groups, the respective irrigation treatment was administered as a single irrigation of the anterior chamber of the eye during the CELR surgical procedure, with a mean of 8 minutes of exposure in this study. In addition, at the end of the procedure, the anterior chamber was filled with the irrigation treatment. The change in pupil diameter over time from surgical baseline (immediately prior to surgical incision) to the end of the surgical procedure (wound closure) was measured, as was postoperative pain on the day of operation as measured by the Visual Analog Scale (VAS) at 2, 4 6, 8 and 10-12 hours and at other times recorded by the patient prior to taking rescue pain medication.

[3] = cited from earlier work
[4] = test system: African green monkey model of human phacoemulsification surgery; assay: Phenylephrine and ketorolac combination (90 μM PE, 30 μM KE) irrigation in phacoemulsification surgical model, Example 7; type: in vivo
Experimental: as §1
as §2, with “The procedure was only performed on the right eye to minimize surgery position variability, allow the left to serve as control, and to minimize the consequence of any possible vision loss induced.” left out
as §3, with “A laser is directed into the anterior chamber and protein molecules, released into the anterior chamber during an inflammatory response, pass through the focal point scattering laser light.” left out
The time course of the mydriatic effect was documented through video recording of the pupil during the perfusion procedure. Pupil diameter and the fixed width of the lid speculum (11 mm) were measured from the screen image to allow calculation of the pupil diameter in millimeters. […]

[5] = test system: African green monkeys undergoing phacoemulsification surgery with lens replacement; assay: GLP toxicology (safety) study of PE-KE irrigation in phacoemulsification surgery, Example 9; type: in vivo, African green monkey; conditions: tropicamide control group; thirty seconds after intracameral 150 μl BSS alone
Experimental: as §1
The mydriatic and anti-inflammatory properties of the test agents were evaluated in an African green monkey model of human phacoemulsification surgery. Prior to surgery, baseline measures and assessments were performed on both eyes in each monkey to determine pupil diameter, lens and iris integrity, corneal thickness, and anterior chamber flare and cell count by qualitative scoring under biomicroscopy and quantitative flare photometry using a Kowa FM-500 instrument. […]
A nonclinical GLP toxicology study was carried out in African green monkeys. […] Three concentrations were evaluated: 720 μM PE and 90 μM KE (720:90 μM) in the low concentration group, 2160 μM PE and 270 μM KE (2160:270 μM) in the mid concentration group, and 7200 μM PE and 900 μM KE (7200:900 μM) in the high concentration group.
A separate control group was evaluated as well. […]

CNC[C@H](O)c1cccc(O)c1 [phenylephrine, (−)-m-Hydroxy-a-[(methylamino)methyl]benzyl alcohol hydrochloride]
pupil dilation after adding phenylephrine to ketorolac or BSS perfusate ([1]; 30 μM phenylephrine added at two minutes): rapid dilation occurred | maximal mydriasis attained, dependence on concentration ([1]; 3, 10, 30, 90 μM): concentration-dependent | flare measures relative to tropicamide control ([1]; all time points, Student Newman-Keuls, hydrochloride): no treatment effect on flare measures; also recorded: no significant difference between treatment groups | mean dilation (pupil diameter) at later time points ([1]; high phenylephrine group (30 μM), approaches anatomic limit): ~8.3 mm | concentration resulting in mydriasis exceeding preoperative topical 1% tropicamide ([1]; in BSS perfusate): ≥ 10 µM | mydriasis onset and maintenance (video pupil data) ([1]; phenylephrine 3-90 μM in BSS anterior chamber perfusate): rapid onset mydriasis which was maintained throughout the surgical procedure | flare photometry and pachymetry measures (anterior chamber inflammation, corneal edema) ([1]; phenylephrine added to perfusate): did not indicate a reduction in anterior chamber inflammation or corneal edema | Subjects Having Pupil Diameter <6 mm during CELR (number of subjects) [2]: 11 | Subjects Having Pupil Diameter <6 mm during CELR (percent) [2]: 22% | solubility ([3]; water and alcohol): freely soluble in water and alcohol

O=C(c1ccccc1)c1ccc2n1CCC2C(=O)O (racemic) [ketorolac, (+/−)-5-Benzoyl-2,3-dihydro-1H-pyrrolizine-1-carboxylic acid:2-amino-2(hydroxymethyl)-1,3-propanediol (1:1)]
flare measurements versus control at 24 and 48 hours ([1]; high and mid dose ketorolac, not statistically significant): remained lower relative to the control group | mydriasis relative to BSS alone ([1]; ketorolac 3-30 μM in BSS, initial two minutes before phenylephrine): No statistical differences; also recorded: did not result in a change in mydriasis substantially different from that observed with BSS alone | flare measures / anterior chamber inflammation versus BSS control at 4.5 hours ([1]; mid (10 μM) and high (30 μM) ketorolac groups combined, F=5.17, P<0.0223): statistically significant difference; also recorded: positive effect of ketorolac on anterior chamber inflammation | anti-miotic effect ([2]; 89 μM KE with 483 μM PE): provided an anti-miotic effect on top of the effect of phenylephrine | subjects with extreme constriction (pupil reduction of 2.5 mm or more) ([2]; 483 μM PE and/or 89 μM KE in BSS): 21% | Subjects Having Pupil Diameter <6 mm during CELR (number of subjects) [2]: 18 | Subjects Having Pupil Diameter <6 mm during CELR (percent) [2]: 35% | solubility of three crystal forms ([3]; water): equally soluble in water

tropicamide
maximal pupil dilation relative to phenylephrine groups ([1]; two drops 1% topical 20 minutes before BSS irrigation): lower maximal dilation than exhibited by the mid, high and highest concentration phenylephrine groups | mean pupil diameter ([4]; control arm of previous efficacy studies, preoperative topical 1% tropicamide): 5.9 mm | time at which pupil diameter plateaued ([4]; monkey, in vivo): approximately 2.5 minutes | maximal dilation relative to PE-KE group ([4]; topical tropicamide 20 minutes before BSS irrigation): lower maximal dilation than exhibited by the PE-KE treatment group | pupil diameter [5]: 5.18±0.18 mm
